Source: patent publication US9708314B2, “Heterocyclic amide compound” (NISSAN CHEMICAL INDUSTRIES, LTD., priority 2013, dated 2017)

Experiments:
Assay type in all cases: in vivo
Glycine max = assay: Test Example 4: effect on crop by application to foliage (diluvial soil, plastic box); conditions: for d (Glycine max) effect on crop grade: Application herbicide amount 320 g/ha, foliage application; for d: effect on crop, Glycine max: application to foliage, application herbicide amount 320 g/ha
Outline: (§1)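 Seeds sown in sterilized diluvial soil, covered ~1.5 cm, grown 14 days in greenhouse at 25° C. to 30° C. Emulsion formulation diluted in water to set rate (g/ha) and sprayed onto stems and leaves. Effect scored visually 3 weeks later on 0–5 scale (5 = ≥90% herbicidal ratio, 0 = ≤5%).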

Zea mays = assay: as above; conditions: for c (Zea mays) effect on crop grade: Application herbicide amount 320 g/ha, foliage application; for c: effect on crop, Zea mays: application to foliage, application herbicide amount 320 g/ha
Outline: as §1

Triticum aestivum = assay: as above; conditions: for e (Triticum aestivum) effect on crop grade: Application herbicide amount 320 g/ha, foliage application; for e: effect on crop, Triticum aestivum: application to foliage, application herbicide amount 320 g/ha
Outline: as §1

[1] = tested on: directly sowed Oryza sativa; assay: as above; conditions: for b (directly sowed Oryza sativa) effect on crop grade: Application herbicide amount 320 g/ha, foliage application; for b: effect on crop, directly sowed Oryza sativa: application to foliage, application herbicide amount 320 g/ha
Outline: as §1

[2] = tested on: Beta vulgaris ssp. vulgaris; assay: as above; conditions: for f (Beta vulgaris ssp. vulgaris) effect on crop grade: Application herbicide amount 320 g/ha, foliage application; for f: effect on crop, Beta vulgaris ssp. vulgaris: application to foliage, application herbicide amount 320 g/ha
Outline: as §1

Brassica campestris L. = assay: as above; conditions: for g (Brassica campestris L.) effect on crop grade: Application herbicide amount 320 g/ha, foliage application; for g: effect on crop, Brassica campestris L.: application to foliage, application herbicide amount 320 g/ha
Outline: as §1

Monochoria vaginalis = assay: Test Example 2: herbicidal activity, application during weed generation in submerged conditions; conditions: Eighteenth Table; application herbicide amount 320 g/ha
Outline: (§2)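 Scored three weeks post-application on a 0–5 scale (5: ≥90% herbicidal ratio, almost withered; 0: ≤5%). Plants raised from mixed-sown seed in submerged alluvial soil (4 cm water), 25–30 °C greenhouse; water-diluted emulsion applied onto water surface at one- to two-leaf stage, dose in g/ha.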

[3] = tested on: Echinochloa oryzacola Vasing.; assay: as above; conditions: Eighteenth Table; application herbicide amount 320 g/ha
Outline: as §2

Scirpus juncoides = assay: as above; conditions: Eighteenth Table; application herbicide amount 320 g/ha
Outline: as §2

Lolium multiflorum Lam. = assay: Test Example 4: herbicidal effect by application to foliage (diluvial soil, plastic box); conditions: for K (Lolium multiflorum Lam.) herbicidal effect grade: Application herbicide amount 320 g/ha, foliage application; for K: herbicidal effect on Lolium multiflorum Lam.: application to foliage, application herbicide amount 320 g/ha
Outline: as §1

Chenopodium album = assay: as above; conditions: for O (Chenopodium album) herbicidal effect grade: Application herbicide amount 320 g/ha, foliage application; for O: herbicidal effect on Chenopodium album: application to foliage, application herbicide amount 320 g/ha
Outline: as §1

Veronica persica = assay: as above; conditions: for R (Veronica persica) herbicidal effect grade: Application herbicide amount 320 g/ha, foliage application; for R: herbicidal effect on Veronica persica: application to foliage, application herbicide amount 320 g/ha
Outline: as §1

Stellaria media = assay: as above; conditions: for P (Stellaria media) herbicidal effect grade: Application herbicide amount 320 g/ha, foliage application; for P: herbicidal effect on Stellaria media: application to foliage, application herbicide amount 320 g/ha
Outline: as §1

[4] = tested on: Echinochloa crus-galli var. crus-galli; assay: as above; conditions: for H (Echinochloa crus-galli var. crus-galli) herbicidal effect grade: Application herbicide amount 320 g/ha, foliage application; for H: herbicidal effect on Echinochloa crus-galli var. crus-galli: application to foliage, application herbicide amount 320 g/ha
Outline: as §1

Abutilon theophrasti = assay: as above; conditions: for M (Abutilon theophrasti) herbicidal effect grade: Application herbicide amount 320 g/ha, foliage application; for M: herbicidal effect on Abutilon theophrasti: application to foliage, application herbicide amount 320 g/ha
Outline: as §1

Avena fatua = assay: as above; conditions: for I (Avena fatua) herbicidal effect grade: Application herbicide amount 320 g/ha, foliage application; for I: herbicidal effect on Avena fatua: application to foliage, application herbicide amount 320 g/ha
Outline: as §1

Apera spica-venti. = assay: as above; conditions: for L (Apera spica-venti.) herbicidal effect grade: Application herbicide amount 320 g/ha, foliage application; for L: herbicidal effect on Apera spica-venti.: application to foliage, application herbicide amount 320 g/ha
Outline: as §1

Digitaria ciliaris = assay: as above; conditions: for F (Digitaria ciliaris) herbicidal effect grade: Application herbicide amount 320 g/ha, foliage application; for F: herbicidal effect on Digitaria ciliaris: application to foliage, application herbicide amount 320 g/ha
Outline: as §1

Amaranthus retroflexus = assay: as above; conditions: for N (Amaranthus retroflexus) herbicidal effect grade: Application herbicide amount 320 g/ha, foliage application; for N: herbicidal effect on Amaranthus retroflexus: application to foliage, application herbicide amount 320 g/ha
Outline: as §1

Alopecurus myosuroides = assay: as above; conditions: for J (Alopecurus myosuroides) herbicidal effect grade: Application herbicide amount 320 g/ha, foliage application; for J: herbicidal effect on Alopecurus myosuroides: application to foliage, application herbicide amount 320 g/ha
Outline: as §1

Galium spurium = assay: as above; conditions: for Q (Galium spurium) herbicidal effect grade: Application herbicide amount 320 g/ha, foliage application; for Q: herbicidal effect on Galium spurium: application to foliage, application herbicide amount 320 g/ha
Outline: as §1

| SMILES | d (Glycine max) effect on crop grade (Glycine max) | c (Zea mays) effect on crop grade (Zea mays) | e (Triticum aestivum) effect on crop grade (Triticum aestivum) | b (directly sowed Oryza sativa) effect on crop grade [1] | f (Beta vulgaris ssp. vulgaris) effect on crop grade [2] | g (Brassica campestris L.) effect on crop grade (Brassica campestris L.) | C (Monochoria vaginalis) herbicidal ratio grade (Monochoria vaginalis) | A (Echinochloa oryzicola Vasing.) herbicidal ratio grade [3] | B (Scirpus juncoides) herbicidal ratio grade (Scirpus juncoides) | K (Lolium multiflorum Lam.) herbicidal effect grade (Lolium multiflorum Lam.) | O (Chenopodium album) herbicidal effect grade (Chenopodium album) | R (Veronica persica) herbicidal effect grade (Veronica persica) | P (Stellaria media) herbicidal effect grade (Stellaria media) | H (Echinochloa crus-galli var. crus-galli) herbicidal effect grade [4] | M (Abutilon theophrasti) herbicidal effect grade (Abutilon theophrasti) | I (Avena fatua) herbicidal effect grade (Avena fatua) | L (Apera spica-venti.) herbicidal effect grade (Apera spica-venti.) | F (Digitaria ciliaris) herbicidal effect grade (Digitaria ciliaris) | N (Amaranthus retroflexus) herbicidal effect grade (Amaranthus retroflexus) | J (Alopecurus myosuroides) herbicidal effect grade (Alopecurus myosuroides) | also measured |
| --- | --- | --- | --- | --- | --- | --- | --- | --- | --- | --- | --- | --- | --- | --- | --- | --- | --- | --- | --- | --- | --- |
| O=C(Nc1nnco1)c1ccc(C(F)(F)F)n2c(N3CCOCC3)nnc12 [1-110] | 4 (Herbicidal ratio of 70% or more and less than 90%) | 4 (Herbicidal ratio of 70% or more and less than 90%) | 3 (Herbicidal ratio of 40% or more and less than 70%) | 4 (Herbicidal ratio of 70% or more and less than 90%) | 5 (Herbicidal ratio of 90% or more (almost completely withered)) | 5 (Herbicidal ratio of 90% or more (almost completely withered)) | 4 (Herbicidal ratio of 70% or more and less than 90%) | 4 (Herbicidal ratio of 70% or more and less than 90%) | 3 (Herbicidal ratio of 40% or more and less than 70%) | 3 (Herbicidal ratio of 40% or more and less than 70%) | 5 (Herbicidal ratio of 90% or more (almost completely withered)) | 5 (Herbicidal ratio of 90% or more (almost completely withered)) | 5 (Herbicidal ratio of 90% or more (almost completely withered)) | 5 (Herbicidal ratio of 90% or more (almost completely withered)) | 4 (Herbicidal ratio of 70% or more and less than 90%) | 4 (Herbicidal ratio of 70% or more and less than 90%) | 3 (Herbicidal ratio of 40% or more and less than 70%) | 5 (Herbicidal ratio of 90% or more (almost completely withered)) | 5 (Herbicidal ratio of 90% or more (almost completely withered)) | 3 (Herbicidal ratio of 40% or more and less than 70%) | Q (Galium spurium) herbicidal effect grade (Galium spurium): 4 (Herbicidal ratio of 70% or more and less than 90%) |
| Cn1nnnc1NC(=O)c1ccc(C(F)(F)F)n2c(Cl)nnc12 [2-008] |  |  |  |  |  |  | 3 (Herbicidal ratio of 40% or more and less than 70%) | 3 (Herbicidal ratio of 40% or more and less than 70%) | 2 (Herbicidal ratio of 20% or more and less than 40%) |  |  |  |  |  |  |  |  |  |  |  | d: effect on crop, Glycine max (Glycine max): 3 (Herbicidal ratio of 40% or more and less than 70%); c: effect on crop, Zea mays (Zea mays): 0 (Herbicidal ratio of 5% or less (almost no effect)); e: effect on crop, Triticum aestivum (Triticum aestivum): 2 (Herbicidal ratio of 20% or more and less than 40%); b: effect on crop, directly sowed Oryza sativa [1]: 1 (Herbicidal ratio of 5% or more and less than 20%); f: effect on crop, Beta vulgaris ssp. vulgaris [2]: 5 (Herbicidal ratio of 90% or more (almost completely withered)); g: effect on crop, Brassica campestris L. (Brassica campestris L.): 3 (Herbicidal ratio of 40% or more and less than 70%); K: herbicidal effect on Lolium multiflorum Lam. (Lolium multiflorum Lam.): 2 (Herbicidal ratio of 20% or more and less than 40%); O: herbicidal effect on Chenopodium album (Chenopodium album): 5 (Herbicidal ratio of 90% or more (almost completely withered)); R: herbicidal effect on Veronica persica (Veronica persica): 4 (Herbicidal ratio of 70% or more and less than 90%); P: herbicidal effect on Stellaria media (Stellaria media): 5 (Herbicidal ratio of 90% or more (almost completely withered)); H: herbicidal effect on Echinochloa crus-galli var. crus-galli [4]: 4 (Herbicidal ratio of 70% or more and less than 90%); M: herbicidal effect on Abutilon theophrasti (Abutilon theophrasti): 5 (Herbicidal ratio of 90% or more (almost completely withered)); I: herbicidal effect on Avena fatua (Avena fatua): 3 (Herbicidal ratio of 40% or more and less than 70%); L: herbicidal effect on Apera spica-venti. (Apera spica-venti.): 1 (Herbicidal ratio of 5% or more and less than 20%); F: herbicidal effect on Digitaria ciliaris (Digitaria ciliaris): 3 (Herbicidal ratio of 40% or more and less than 70%); N: herbicidal effect on Amaranthus retroflexus (Amaranthus retroflexus): 5 (Herbicidal ratio of 90% or more (almost completely withered)); J: herbicidal effect on Alopecurus myosuroides (Alopecurus myosuroides): 1 (Herbicidal ratio of 5% or more and less than 20%); Q: herbicidal effect on Galium spurium (Galium spurium): 3 (Herbicidal ratio of 40% or more and less than 70%) |
| CCSc1nnc2c(C(=O)Nc3nnnn3C)ccc(C(F)(F)F)n12 [2-024] |  |  |  |  |  |  | 4 (Herbicidal ratio of 70% or more and less than 90%) | 5 (Herbicidal ratio of 90% or more (almost completely withered)) | 4 (Herbicidal ratio of 70% or more and less than 90%) |  |  |  |  |  |  |  |  |  |  |  | d: effect on crop, Glycine max (Glycine max): 5 (Herbicidal ratio of 90% or more (almost completely withered)); c: effect on crop, Zea mays (Zea mays): 5 (Herbicidal ratio of 90% or more (almost completely withered)); e: effect on crop, Triticum aestivum (Triticum aestivum): 4 (Herbicidal ratio of 70% or more and less than 90%); b: effect on crop, directly sowed Oryza sativa [1]: 5 (Herbicidal ratio of 90% or more (almost completely withered)); f: effect on crop, Beta vulgaris ssp. vulgaris [2]: 5 (Herbicidal ratio of 90% or more (almost completely withered)); g: effect on crop, Brassica campestris L. (Brassica campestris L.): 5 (Herbicidal ratio of 90% or more (almost completely withered)); K: herbicidal effect on Lolium multiflorum Lam. (Lolium multiflorum Lam.): 4 (Herbicidal ratio of 70% or more and less than 90%); O: herbicidal effect on Chenopodium album (Chenopodium album): 5 (Herbicidal ratio of 90% or more (almost completely withered)); R: herbicidal effect on Veronica persica (Veronica persica): 5 (Herbicidal ratio of 90% or more (almost completely withered)); P: herbicidal effect on Stellaria media (Stellaria media): 5 (Herbicidal ratio of 90% or more (almost completely withered)); H: herbicidal effect on Echinochloa crus-galli var. crus-galli [4]: 5 (Herbicidal ratio of 90% or more (almost completely withered)); M: herbicidal effect on Abutilon theophrasti (Abutilon theophrasti): 5 (Herbicidal ratio of 90% or more (almost completely withered)); I: herbicidal effect on Avena fatua (Avena fatua): 4 (Herbicidal ratio of 70% or more and less than 90%); L: herbicidal effect on Apera spica-venti. (Apera spica-venti.): 5 (Herbicidal ratio of 90% or more (almost completely withered)); F: herbicidal effect on Digitaria ciliaris (Digitaria ciliaris): 5 (Herbicidal ratio of 90% or more (almost completely withered)); N: herbicidal effect on Amaranthus retroflexus (Amaranthus retroflexus): 5 (Herbicidal ratio of 90% or more (almost completely withered)); J: herbicidal effect on Alopecurus myosuroides (Alopecurus myosuroides): 3 (Herbicidal ratio of 40% or more and less than 70%); Q: herbicidal effect on Galium spurium (Galium spurium): 4 (Herbicidal ratio of 70% or more and less than 90%) |
| COc1ccc(Cc2nnc3c(C(=O)Nc4nnco4)ccc(C(F)(F)F)n23)cc1 [1-151] | 4 (Herbicidal ratio of 70% or more and less than 90%) | 0 (Herbicidal ratio of 5% or less (almost no effect)) | 3 (Herbicidal ratio of 40% or more and less than 70%) | 0 (Herbicidal ratio of 5% or less (almost no effect)) | 5 (Herbicidal ratio of 90% or more (almost completely withered)) | 5 (Herbicidal ratio of 90% or more (almost completely withered)) | 2 (Herbicidal ratio of 20% or more and less than 40%) | 4 (Herbicidal ratio of 70% or more and less than 90%) | 4 (Herbicidal ratio of 70% or more and less than 90%) | 3 (Herbicidal ratio of 40% or more and less than 70%) | 5 (Herbicidal ratio of 90% or more (almost completely withered)) | 5 (Herbicidal ratio of 90% or more (almost completely withered)) | 5 (Herbicidal ratio of 90% or more (almost completely withered)) | 5 (Herbicidal ratio of 90% or more (almost completely withered)) | 3 (Herbicidal ratio of 40% or more and less than 70%) | 3 (Herbicidal ratio of 40% or more and less than 70%) | 2 (Herbicidal ratio of 20% or more and less than 40%) | 5 (Herbicidal ratio of 90% or more (almost completely withered)) | 5 (Herbicidal ratio of 90% or more (almost completely withered)) | 1 (Herbicidal ratio of 5% or more and less than 20%) | Q (Galium spurium) herbicidal effect grade (Galium spurium): 4 (Herbicidal ratio of 70% or more and less than 90%) |
